Ends that are not written are not given here.

Data set [1] is described as follows: NMR competition (WaterLOGSY / spin-lock filtered 1H): displacement of FS2/FS3 peptides from heparin agarose resin. The class given is binding. Particulars: pH 7.5; for displacement of FS3 peptide from heparin agarose resin: spin-lock filtered 1D 1H NMR, 1 mM peptide, 1 mM peptoid. The procedure: NMR competition experiments involved the acquisition of 1D-^1H WaterLOGSY or spin-lock filtered NMR spectra. Thus, FS2 peptide is displaced from heparin agarose resin by CSIC02 (1:1 peptoid/FS2, both 1 mM), but not by CSIC03 (Figure S15). […] We reasoned that if CSIC02 was able to interact with GAG and displace FS2/FS3 basic peptides, it may also interfere with SCTWT–heparin interaction. To investigate if CSIC02 could displace SCTWT from heparin dp14 and to define the SCTWT residues affected, 2D NMR ^1H-^15N HSQC CSP experiments were used. Figure 8a illustrates the chemical shift effects of CSIC02 addition to a sample of SCTWT containing dp14 heparin. […] In Figure 8b, we display the chemical shift perturbation of SCTWT NMR spectra in the presence of dp14 and CSIC02. Thus, as the two CSP plots in Figure 4b and Figure 8b were calculated using as reference SCTWT alone in solution, we can compare them directly. […] Moreover, splitting of signals for some residues (R733, R734, and Q735 in the first GAG-binding region) was observed (Figure 8c). This observation is compatible with the presence of different species in slow chemical exchange in solution, with partial detachment of SCTWT from heparin. The amount of CSIC02 used in these experiments can be rationalized considering that the SCTWT has ca. 12 positive charges at neutral pH (Figure S18), while CSIC02 is tricationic. Since the binding is mediated by ionic polar interactions, a large excess of CSIC02 is needed to counterbalance the SCTWT-dp14 binding.
Next, 1D ^1H T1ρ relaxation filtered and WaterLOGSY NMR experiments were acquired at 25 °C on a 500-MHz spectrometer (Varian Inova; Agilent Technologies, Santa Clara, CA, USA) equipped with an AutoX inverse double-resonance probe with a z-shielded pulsed-field gradient coil. The samples were prepared in a 5-mm Wilmad NMR 528-PP tubes with 10 mM Tris-d11 (for peptide/GAG samples) and 150 mM NaCl dissolved in 90% H2O/10% D2O at pH 7.5. All spectra were obtained with a sweep width of 8 kHz and 16,384 acquired data points. The experiments were recorded using the standard pulse sequence in the (WLOGSY_ES) Chempack library, with excitation sculpting to suppress water resonances. For Water-LOGSY experiments, the first water-selective 180° pulse was 25 ms long. The spectra were acquired with 1200 transients and a spin-lock pulse of 50 ms at 3.7 kHz. To phase Water-LOGSY spectra correctly, it is necessary to use an internal reference compound. In our case, the reference is the residual ethanol absorbed/bonded in heparin-agarose resin (this interaction was previously confirmed with T1ρ filtered experiments), which appears as a positively phased signal. […]

The test system of data set [2] is Sema3A. Also on record: method as in PMID 27028639. Particulars: cited from earlier work.
The nature of data set [3]: Potentiometric titration (protonation state). Particulars: 25 °C, 0.15 M NaCl. Format: physicochemical. The protocol:
UV absorbance was measured using a SpectraMax M5 spectrophotometer (Molecular Devices, Sunnyvale, CA, USA). The experiments were performed with a 10 μM methylene blue (MB) solution in 5 mM Tris-HCl buffer at pH 7.5, to which increasing amounts of heparin were added to saturation of the MB dye. For the competition assays, solutions of MB and heparin at fixed concentrations were titrated with increasing amounts of SICHI or CSIC02–04 peptoids. Then, the relative increase in absorbance at 665 nm, due to release of MB from the MB–heparin complex when adding either SICHI or CSIC02–04 to the cuvette, can be plotted vs. the charge ratio considering their respective concentrations and that all the peptoids have three positive charges, and heparin has four negative charges per disaccharide unit. With this information, the charge excess for 50% of displacement of the MB dye (CE50) for each compound can be calculated for comparison. Potentiometric titrations were carried out in a reaction vessel thermostated with a water bath at 25.0 ± 0.1 °C under nitrogen atmosphere, and 0.15 M NaCl was used as the supporting electrolyte. The titrant was delivered by a precision microburette. The potentiometric measurements were made with a pH-mV meter. The reference electrode was an Ag/AgCl electrode in saturated KCl solution. The acquisition of the emf data was performed with the computer program Tiamo 2.3.1. […]

Data set [4] has as its system Nrp1. Also on record: method as in PMID 27028639. Particulars: cited from earlier work.
The subject of data set [5] is Sema3A chemorepulsive activity. On the set-up: method as in PMID 19615921. Particulars: cited from earlier work.
Data set [6] can be described thus: SPR binding to immobilized biotinylated heparin. Particulars: Table S3. The procedure:
(§1) The interaction between Sema3A basic tail and GAGs was analyzed using several methods: chromatographic elution as a function of NaCl concentration based on affinity to a heparin sepharose column, surface plasmon resonance (SPR), NMR [52], and molecular dynamics simulations. Firstly, we observed that SCTWT binds to a heparin-Sepharose column and the protein is only released at about 1M NaCl (>50% of buffer B, Figure 3c), similar to the widely reported antithrombin–heparin interaction, indicating a SCTWT-heparin high-affinity, in the 10^−7–10^−9 M range [54]. Next, SPR measurements were performed to characterize protein–heparin binding kinetics. […]
All SPR experiments were performed on a Biacore T-100 instrument (Cytiva, formally GE Healthcare, Marlborough, MA, USA) in HBS-T buffer (10 mM HEPES, 150 mM NaCl, 0.05% Tween-20, pH 7.5) at 25 °C. […] The SPR experiments were performed in duplicate and the dissociation constant (Kd) values and binding levels are expressed as the mean and standard deviation from the individual experiments. […]

Data set [7] in a line: Heparin affinity chromatography (NaCl gradient elution). Format: binding. The procedure:
Figure 3 SPR sensorgrams of increasing amounts (0 to 1 μM) of the SCTWT construct flown over (HBS-T buffer) (a) immobilized biotinylated heparin (350 RU) (b) CD Spectra of 5 μM Sema3A C-terminal region in the absence (blue) and the presence of 1 μM UFH (orange), measured at pH 5.5 in 10 mM NaP. […] SCTWT was loaded onto a HiTrap Heparin column equilibrated with […] (pH 7.5), and eluted with a linear gradient to 2 M NaCl. Left ordinate axis, absorbance; righ ordinate axis, % NaCl (% B).
A prepacked 1-mL HiTrap Heparin HP affinity column (GE Healthcare) was used on a AKTA purifier system to perform heparin affinity chromatography. Then, 100 μL of SCT samples at ~100 μM were injected and run at 1 mL/min in a linear gradient with buffer A = 10 mM Tris-HCl, pH = 7.5 and buffer B = 10 mM Tris-HCl, 2M NaCl, pH = 7.5.

Data set [8] is described as follows: SPR binding to immobilized biotinylated CS-A. The procedure:
as §1
All SPR experiments were performed on a Biacore T-100 instrument (Cytiva, formally GE Healthcare, Marlborough, MA, USA) in HBS-T buffer (10 mM HEPES, 150 mM NaCl, 0.05% Tween-20, pH 7.5) at 25 °C. […] The SPR experiments were performed in duplicate and the dissociation constant (Kd) values and binding levels are expressed as the mean and standard deviation from the individual experiments.

Data set [9] deals with the molecule itself. Kind of data set: 1H-15N NMR spectra; 1H-15N NMR spectra of LCTWT acquired without and with reducing agent TCEP; monomer and dimer.

As to `CCN(CC)CCNCC(=O)N(CCN1CCCC1)CC(=O)NCCC1CCCN1C` (stereo not drawn) [CSIC03], the “displacement of FS2 peptide from heparin agarose resin” value in data set [1] (WaterLOGSY, 1:1 peptoid/FS2, both 1 mM) is listed as “not”. In addition, the “displacement of FS3 peptide from heparin agarose resin” value in data set [1] is “incapable to displace”.

As for `CCN(CC)CCN(CC(=O)N(CCN1CCCC1)CC(=O)NCCC1CCCN1C)C(=O)OCc1ccccc1` (stereo not drawn) [CSIC04], the “displacement of FS3 peptide from heparin agarose resin” value in data set [1] is recorded as “incapable to displace”.

With `CCN(CC)CCNCC(=O)N(CCN1CCCC1)CC(=O)N(CCC1CCCN1C)CC(N)=O` (stereo not drawn) [SICHI], in data set [2], the “binding to Sema3A” value is listed as “neither Sema3A or Nrp1 bind”. The “protonation state at neutral pH” value in data set [3] is on record as “triprotonated”. Moreover, the “binding to Nrp1” value in data set [4] was “neither Sema3A or Nrp1 bind”. In data set [5], the “in vitro effect on Sema3A chemorepulsive activity” value was “inhibition”.

“FS2: Sema3A C-terminal peptide 725-736, VWKRDRKQRRQR”: the “fold stronger affinity to heparin compared to NFS3 peptide” value in data set [6] is recorded as 60 fold.

“LCTWT: recombinant Sema3A C-terminal construct 716-771 incorporating the cysteine (NTMDEFCEQVWKRDRKQRRQRPGHTPGNSNKWKHLQENKKGRNRRTHEFERAPRSV; also: post-translational modification of the N-terminus, kind not given here)”: the “NaCl concentration at elution under reducing conditions” value in data set [7] (5 mM DTT) is listed as ~ 0.92 M NaCl. Besides, the “NaCl concentration at elution peak (single or major peak)” value in [7] (linear gradient to 2 M NaCl, Tris-HCl pH 7.5) was ~ 1.12 M NaCl. In addition, the “NaCl concentration at minor elution peak” value in data set [7] (linear gradient to 2 M NaCl, minor peak (monomeric form)) is ~ 0.92 M NaCl.

On to “SCTRR/QH: SCT construct bearing two mutations, R730Q and R733H (VWKRDQKQHRQRPGHTPGNSNKWKHLQENKKGRNRRTHEFERAPRSV; UniProt Q14563 725-771, looked up, variant R730Q R733H)”, for which the “elution of the mutated protein relative to SCTWT” value in data set [7] (heparin affinity chromatography) was “slightly earlier elution”. In [8] (immobilized biotinylated CS-A), the “binding to CS-A” value is given as “completely abrogated”.

For the molecule “SCTWT: recombinant Sema3A C-terminal polybasic tail construct, residues 725–771 (VWKRDRKQRRQRPGHTPGNSNKWKHLQENKKGRNRRTHEFERAPRSV; UniProt Q14563 725-771, looked up, fragment)”, the “affinity for heparin versus CS-A” value in [8] (comparison of heparin and CS-A chips) is “higher affinity to heparin than to CS-A”.

B1: recombinant Sema3A C-terminal construct incorporating the cysteine (LCTWT, 716-771) (domain or fragment, human, UniProt Q14563 716-771, looked up)
chain: NTMDEFCEQVWKRDRKQRRQRPGHTPGNSNKWKHLQENKKGRNRRTHEFERAPRSV
modifications: also: post-translational modification of the N-terminus, kind not given here
notes: Semaphorin 3A (Sema3A), human, C-terminal region 716-771 with the cysteine (Cys722 as printed) between the Ig domain and the basic tail; The methods say that the SCT constructs were made without any fusion tag in E. coli BL21 (DE3) and purified by cation exchange and reverse phase; source: recombinant
For B1, the binding result in [9] is listed as “binds”.

The values are drawn from article PMC8465649, “Semaphorin 3A—Glycosaminoglycans Interaction as Therapeutic Target for Axonal Regeneration” (Pharmaceuticals, 2021).
